Source: patent publication US7855309B2, “Pesticide benzyloxy- and phenetyl-substituted phenyl-amidine derivatives” (Bayer CropScience AG, priority 2005, dated 2010)

Experiments:
[1] = logP by HPLC on reversed-phase column (EEC Directive 79/831 Annex V.A8); format: physicochemical; details: HPLC, C18, 40° C., 0.1% aqueous formic acid and acetonitrile
Method: Temperature: 40° C.; Mobile phases: 0.1% aqueous formic acid and acetonitrile; linear gradient from 10% acetonitrile to 90% acetonitrile.
Calibration was carried out using unbranched alkan-2-ones (comprising 3 to 16 carbon atoms) with known logP values (determination of the logP values by the retention times using linear interpolation between two successive alkanones).

Heliothis viresens = test: In vivo protective test on Heliothis virescens (HELIVI); set-up: species or system Heliotis virescens; details: soybean leaf sections, eggs
Method: In Vivo Protective Test on Heliothis viresens (HELIVI)
Solvent: 78 parts by weight acetone
• 1.5 parts by weight dimethylformamide Wetting agent: 0.5 parts by weight alkylarylpolyglcolether
To produce a suitable preparation of active compound, 1 part by weight of active compound is mixed with the stated amount of solvent and emulsifier, and the concentrate is diluted with emulsifier-containing water to the desired concentration.
Soybean (Glycine max.) leaf sections are sprayed with a preparation of the active ingredient of the desired concentration. Once dry, the leaf sections are infested with eggs of cotton bollworm (Heliotis virescens).
After the specified period of time, mortality in % is determined. 100% means that all eggs have been killed and 0% means that none of the eggs have been killed.

Aedes aegypti larvae = test: In vivo protective test on Aedes aegypti (AEDSAE U)
Method: In Vivo Protective Test on Aedes Aegypti (AEDSAE U)
Solvent: 1% N-methylpyrrolidone (NMP)
• 1% diacetonealcohol Dye: brillantsulfoflavin for staining water
To produce a suitable preparation of the active compound, the active compound is mixed with the stated amount of solvent, and the concentrate is diluted with staining water to the desired concentration.
Aedes aegypti larvae are pipetted with a preparation of active ingredient of the desired concentration.
After the specified period of time, mortality in % is determined. 100% means that all larvae have been killed, a 0% means that none of the larvae have been killed.

| Compound | log P [1] | activity (mortality) (Heliothis viresens) | activity (mortality) (Aedes aegypti larvae) |
| --- | --- | --- | --- |
| CCN(C)C=Nc1cc(C)c(OCc2cccc(Cl)c2)cc1C [Compound 7] | 2.13 | good activity | good activity |
| CCN(C)C=Nc1cc(C)c(OC(C)c2ccc(F)cc2)cc1C (stereo not drawn) [Compound 6] | 2.08 | good activity | good activity |
